In patent publication US9955691B2, “Macrocyclic picolinamides as fungicides” (DOW AGROSCIENCES LLC, priority 2014, dated 2018):
Where two headings read alike, the source gives them in different places.

How the values were obtained:
Puccinia triticina = experiment: Fungicidal activity: Wheat Brown Rust (PUCCRT); format: in vivo; settings: for pest or weed control at 121.5 g/ha: Low Volume (121.5 g/H); for pest or weed control at 100 µg/mL: High Volume (100 ppm)
Method in brief: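 Percent control of brown rust was derived from 0-100% severity on treated versus untreated first leaves. Yuma wheat seedlings were spray-treated to run-off (acetone/water, Triton X-100) and inoculated with P. triticina spores before or after treatment, then held overnight in dark dew at 22° C and moved to a 24° C greenhouse.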

[1] = tested on: Mycosphaerella graminicola; Anamorph: Septoria tritici; experiment: Fungicidal activity: Leaf Blotch of Wheat (SEPTTR); format: in vivo; settings: Zymoseptoria tritici, wheat leaf blotch; for pest or weed control at 121.5 g/ha: Low Volume (121.5 g/H); for pest or weed control at 100 µg/mL: High Volume (100 ppm)
Method in brief: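 Compounds were dissolved in acetone, diluted with nine volumes of water containing 110 ppm Triton X-100, and sprayed to run-off on first-leaf Yuma wheat seedlings inoculated with Septoria tritici spores before or after treatment. Plants were held in a dew chamber, then a 20° C. greenhouse. Percent control was derived from disease severity relative to untreated plants.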

[2] = 24 h, 1 Day Protectant, read-out: PUCCRT 1 DP disease control
[3] = 72 h, 3 Day Curative, read-out: PUCCRT 3 DC disease control
[4] = 24 h, 1 Day Protectant, read-out: SEPTTR 1 DP disease control
[5] = 72 h, 3 Day Curative, read-out: SEPTTR 3 DC disease control

| SMILES | pest or weed control at 121.5 g/ha (Puccinia triticina; [2]) [%] | pest or weed control at 121.5 g/ha (Puccinia triticina; [3]) [%] | melting point [°C] | pest or weed control at 121.5 g/ha [1, 4] [%] | pest or weed control at 121.5 g/ha [1, 5] [%] | pest or weed control at 100 µg/mL (Puccinia triticina; [2]) [%] | pest or weed control at 100 µg/mL (Puccinia triticina; [3]) [%] | pest or weed control at 100 µg/mL [1, 4] [%] | pest or weed control at 100 µg/mL [1, 5] [%] |
| --- | --- | --- | --- | --- | --- | --- | --- | --- | --- |
| COc1ccnc(C(=O)N[C@H]2COC[C@H](CC3CC3)[C@@H](Cc3ccccc3)[C@H](C)OC2=O)c1OCOC(C)=O [compound 68] | > 70 | < 70 | 41 to 45 | > 70 | < 70 | – | – | – | – |
| COc1ccnc(C(=O)N[C@H]2COC[C@H](CC3CC3)[C@@H](Cc3ccccc3)[C@H](C)OC2=O)c1OC(C)=O [compound 69] | > 70 | > 70 | 125 to 128 | > 70 | > 70 | – | – | – | – |
| COc1ccnc(C(=O)N[C@H]2COC[C@H](CC3CC3)[C@@H](Cc3ccccc3)[C@H](C)OC2=O)c1OCOC(=O)C(C)C [compound 70] | > 70 | > 70 | 37 to 41 | > 70 | > 70 | – | – | – | – |
| COc1ccnc(C(=O)N[C@H]2COC[C@H](Cc3ccc(C(F)(F)F)cc3)[C@@H](CC(C)C)[C@H](C)OC2=O)c1OCOC(C)=O [compound 71] | > 70 | > 70 | 54 to 59 | > 70 | > 70 | – | – | – | – |
| COc1ccnc(C(=O)N[C@H]2COC[C@H](Cc3ccc(C(F)(F)F)cc3)[C@@H](CC(C)C)[C@H](C)OC2=O)c1OC(C)=O [compound 72] | > 70 | > 70 | 75 to 79 | > 70 | > 70 | – | – | – | – |
| COc1ccnc(C(=O)N[C@H]2COC[C@H](Cc3ccc(Cl)cc3)[C@@H](C3CCCC3)[C@H](C)OC2=O)c1OC(C)=O [compound 86] | > 70 | > 70 | 85 to 89 | > 70 | > 70 | – | – | – | – |
| COc1ccnc(C(=O)N[C@H]2COC[C@H](Cc3ccc(Cl)cc3)[C@@H](C3CCCC3)[C@H](C)OC2=O)c1OC(=O)C(C)C [compound 87] | > 70 | < 70 | 73 to 77 | > 70 | > 70 | – | – | – | – |
| COc1ccnc(C(=O)N[C@H]2COC[C@H](Cc3ccc(Cl)cc3)[C@@H](C3CCCC3)[C@H](C)OC2=O)c1OCOC(C)=O [compound 88] | > 70 | < 70 | 56 to 60 | > 70 | < 70 | – | – | – | – |
| COc1ccnc(C(=O)N[C@H]2COC[C@H](Cc3ccc(Cl)cc3)[C@@H](C3CCCC3)[C@H](C)OC2=O)c1OCOC(=O)C(C)C [compound 89] | > 70 | < 70 | 54 to 58 | > 70 | > 70 | – | – | – | – |
| CCOCC(=O)OCOc1c(OC)ccnc1C(=O)N[C@H]1COC[C@H](Cc2ccc(Cl)cc2)[C@@H](C2CCCC2)[C@H](C)OC1=O [compound 90, ((2-(((3S,7R,8R,9S)-7-(4-chlorobenzyl)-8-cyclopentyl-9-methyl-2-oxo-1,5-dioxonan-3-yl)carbamoyl)-4-methoxypyridin-3-yl)oxy)methyl 2-ethoxyacetate] | > 70 | < 70 | 52 to 55 | > 70 | > 70 | – | – | – | – |
| COc1ccnc(C(=O)N[C@H]2COC[C@H](CCC(C)C)[C@@H](C3CCCC3)[C@H](C)OC2=O)c1OC(C)=O [compound 91] | > 70 | < 70 | 57 to 62 | > 70 | > 70 | – | – | – | – |
| COc1ccnc(C(=O)N[C@H]2COC[C@H](CCC(C)C)[C@@H](C3CCCC3)[C@H](C)OC2=O)c1OC(=O)C(C)C [compound 92, 2-(((3S,7R,8R,9S)-8-cyclopentyl-7-isopentyl-9-methyl-2-oxo-1,5-dioxonan-3-yl)carbamoyl)-4-methoxypyridin-3-yl isobutyrate] | > 70 | > 70 | 47 to 51 | > 70 | > 70 | – | – | – | – |
| COc1ccnc(C(=O)N[C@H]2COC[C@H](CCC(C)C)[C@@H](C3CCCC3)[C@H](C)OC2=O)c1OCOC(C)=O [compound 93] | > 70 | < 70 | 47 to 53 | > 70 | < 70 | – | – | – | – |
| COc1ccnc(C(=O)N[C@H]2COC[C@H](Cc3ccccc3)[C@@H](COc3ccccc3)[C@H](C)OC2=O)c1OC(C)=O [compound 95, 2-(((3S,7R,8S,9S)-7-benzyl-9-methyl-2-oxo-8-(phenoxymethyl)-1,5-dioxonan-3-yl)carbamoyl)-4-methoxypyridin-3-yl acetate] | > 70 | > 70 | 70 to 74 | > 70 | > 70 | – | – | – | – |
| COc1ccnc(C(=O)N[C@H]2COC[C@H](Cc3ccccc3)[C@@H](COc3ccccc3)[C@H](C)OC2=O)c1OCOC(C)=O [compound 96] | > 70 | < 70 | 56 to 61 | > 70 | > 70 | – | – | – | – |
| COCCC(=O)Oc1c(OC)ccnc1C(=O)N[C@H]1COC[C@H](Cc2ccc(Cl)cc2)[C@@H](C2CCCC2)[C@H](C)OC1=O [compound 106, 2-(((3S,7R,8R,9S)-7-(4-chlorobenzyl)-8-cyclopentyl-9-methyl-2-oxo-1,5-dioxonan-3-yl)carbamoyl)-4-methoxypyridin-3-yl 3-methoxypropanoate] | > 70 | > 70 | 55 to 60 | > 70 | > 70 | – | – | – | – |
| CCC[C@H]1COC[C@H](NC(=O)c2nccc(OC)c2OC(C)=O)C(=O)O[C@@H](C)[C@@H]1Cc1ccc(F)cc1 [compound 107] | > 70 | > 70 | 57 to 62 | > 70 | > 70 | – | – | – | – |
| CCC[C@H]1COC[C@H](NC(=O)c2nccc(OC)c2OCOC(C)=O)C(=O)O[C@@H](C)[C@@H]1Cc1ccc(F)cc1 [compound 108] | > 70 | > 70 | 38 to 43 | > 70 | > 70 | – | – | – | – |
| COc1ccnc(C(=O)N[C@H]2COC[C@H](Cc3ccccc3)[C@@H](Cc3ccccc3)[C@@H](C)OC2=O)c1O [compound 111] | – | – | 201 to 204 | – | – | > 70 | > 70 | > 70 | < 70 |
| COc1ccnc(C(=O)N[C@H]2COC[C@H](CCc3ccccc3)[C@@H](CCc3ccccc3)[C@H](C)OC2=O)c1O [compound 113] | – | – | 52 to 56 | – | – | > 70 | < 70 | > 70 | > 70 |
| COc1ccnc(C(=O)N[C@H]2COC[C@H](c3ccccc3)[C@@H](c3ccccc3)[C@H](C)OC2=O)c1O [compound 116] | – | – | 64 to 72 | – | – | > 70 | > 70 | > 70 | < 70 |
